Measurements reported in ChEMBL document CHEMBL5096156, “A Review of Progress in Histone Deacetylase 6 Inhibitors Research: Structural Specificity and Functional Diversity” (J Med Chem, 2021).

Experiments:
[1] = biological target: T1, Protein deacetylase HDAC6 (Homo sapiens) (UniProt Q9UBN7); assay: Inhibition of recombinant HDAC6 (unknown origin) using […] fluorogenic peptide as substrate at 5 uM incubated for 1 hr by microplate reader assay
T1 sequence (whole entry): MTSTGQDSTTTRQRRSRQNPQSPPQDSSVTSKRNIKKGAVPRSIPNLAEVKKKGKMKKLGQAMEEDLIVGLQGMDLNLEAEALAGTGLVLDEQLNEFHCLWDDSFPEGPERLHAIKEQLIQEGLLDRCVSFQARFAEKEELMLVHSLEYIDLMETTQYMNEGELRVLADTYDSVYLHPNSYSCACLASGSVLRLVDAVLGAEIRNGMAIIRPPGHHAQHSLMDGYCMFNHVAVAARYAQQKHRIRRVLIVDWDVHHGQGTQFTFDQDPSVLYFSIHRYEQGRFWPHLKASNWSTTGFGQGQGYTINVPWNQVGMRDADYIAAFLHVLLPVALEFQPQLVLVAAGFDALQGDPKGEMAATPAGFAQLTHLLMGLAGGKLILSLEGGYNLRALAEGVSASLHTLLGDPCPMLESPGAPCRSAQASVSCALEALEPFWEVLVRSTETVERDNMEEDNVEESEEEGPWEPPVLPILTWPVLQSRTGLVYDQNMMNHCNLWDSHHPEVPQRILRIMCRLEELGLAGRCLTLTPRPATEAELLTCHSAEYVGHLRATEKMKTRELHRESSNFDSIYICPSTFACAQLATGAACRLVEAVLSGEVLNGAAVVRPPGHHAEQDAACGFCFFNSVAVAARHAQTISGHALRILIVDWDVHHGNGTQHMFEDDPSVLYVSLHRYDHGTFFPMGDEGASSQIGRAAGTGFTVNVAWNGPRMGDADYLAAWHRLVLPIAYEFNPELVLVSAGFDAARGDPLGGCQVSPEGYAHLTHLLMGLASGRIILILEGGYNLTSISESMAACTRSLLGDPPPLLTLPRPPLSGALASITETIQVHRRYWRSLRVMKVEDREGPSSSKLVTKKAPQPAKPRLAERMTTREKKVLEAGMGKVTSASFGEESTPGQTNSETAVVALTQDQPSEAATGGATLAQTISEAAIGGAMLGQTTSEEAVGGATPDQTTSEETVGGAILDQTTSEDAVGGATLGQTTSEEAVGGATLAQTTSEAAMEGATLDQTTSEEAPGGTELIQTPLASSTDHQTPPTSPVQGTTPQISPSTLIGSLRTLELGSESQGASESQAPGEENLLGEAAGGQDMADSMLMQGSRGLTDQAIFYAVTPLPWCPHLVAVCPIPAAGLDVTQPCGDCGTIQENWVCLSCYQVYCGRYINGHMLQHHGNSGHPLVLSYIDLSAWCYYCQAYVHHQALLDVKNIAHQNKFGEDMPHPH

[2] = biological target: T1, Protein deacetylase HDAC6 (Homo sapiens); assay: Inhibition of recombinant HDAC6 (unknown origin) using […] fluorogenic peptide as substrate at 50 uM incubated for 1 hr by microplate reader assay
[3] = biological target: Heat shock protein HSP 90-alpha (Homo sapiens) (UniProt P07900); assay: Inhibition of recombinant HSP90 alpha (unknown origin) at 50 uM by fluorescence polarization competitive binding assay
[4] = biological target: T2, Histone deacetylase 1 (Homo sapiens, UniProt Q13547); assay: Inhibition of human recombinant HDAC1 using ZMAL -Z-(Ac)Lys-AMC fluorogenic substrate incubated for 30 mins by microplate reader assay
[5] = biological target: T3, Protein deacetylase HDAC6 (Homo sapiens, UniProt Q9UBN7); assay: Inhibition of human recombinant HDAC6 using ZMAL -Z-(Ac)Lys-AMC fluorogenic substrate incubated for 30 mins by microplate reader assay
T3 sequence (Q9UBN7 whole entry): T1 sequence (whole entry)

[6] = biological target: T3, Protein deacetylase HDAC6; assay: Inhibition of HDAC6 (unknown origin)
[7] = biological target: T2, Histone deacetylase 1; assay: Inhibition of HDAC1 (unknown origin)
[8] = biological target: T4, Histone deacetylase 2 (Homo sapiens, UniProt Q92769); assay: Inhibition of full length human recombinant HDAC2 expressed in baculovirus infected Sf9 cells using RHKKAc fluorogenic peptide as substrate incubated for 2 hrs
[9] = biological target: T5, Polyamine deacetylase HDAC10 (Homo sapiens, UniProt Q969S8); assay: Inhibition of full length human recombinant HDAC10 expressed in baculovirus infected Sf9 cells using RHKKAc fluorogenic peptide as substrate incubated for 2 hrs
T5 sequence (Q969S8 whole entry): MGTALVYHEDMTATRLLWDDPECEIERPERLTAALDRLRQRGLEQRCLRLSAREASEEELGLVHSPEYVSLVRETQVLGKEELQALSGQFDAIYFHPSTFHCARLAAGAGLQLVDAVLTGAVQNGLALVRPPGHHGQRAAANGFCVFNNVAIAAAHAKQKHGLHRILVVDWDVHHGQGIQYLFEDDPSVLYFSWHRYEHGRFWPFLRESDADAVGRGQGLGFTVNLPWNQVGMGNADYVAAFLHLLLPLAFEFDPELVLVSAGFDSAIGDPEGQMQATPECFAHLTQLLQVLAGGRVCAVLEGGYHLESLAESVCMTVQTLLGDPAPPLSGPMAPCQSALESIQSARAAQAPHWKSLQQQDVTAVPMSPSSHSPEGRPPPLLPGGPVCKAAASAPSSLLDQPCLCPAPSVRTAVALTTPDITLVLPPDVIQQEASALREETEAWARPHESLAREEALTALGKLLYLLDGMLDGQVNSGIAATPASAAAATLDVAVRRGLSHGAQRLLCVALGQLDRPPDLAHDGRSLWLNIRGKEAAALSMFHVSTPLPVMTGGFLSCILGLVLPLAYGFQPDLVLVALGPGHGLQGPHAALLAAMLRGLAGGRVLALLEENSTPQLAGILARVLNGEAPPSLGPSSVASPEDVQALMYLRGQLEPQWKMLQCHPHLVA

[10] = biological target: T6, Histone deacetylase 3 (Homo sapiens, UniProt O15379); assay: Inhibition of full length human recombinant HDAC3 expressed in baculovirus infected Sf9 cells using RHKKAc fluorogenic peptide as substrate incubated for 2 hrs
[11] = biological target: T2, Histone deacetylase 1; assay: Inhibition of full length human recombinant HDAC1 expressed in baculovirus infected Sf9 cells using RHKKAc fluorogenic peptide as substrate incubated for 2 hrs
[12] = biological target: T3, Protein deacetylase HDAC6; assay: Inhibition of human recombinant HDAC6 using BML-AK511 as substrate incubated for 60 mins by fluorimetric assay
[13] = biological target: T7, Histone deacetylase 8 (Homo sapiens, UniProt Q9BY41); assay: Inhibition of full length human recombinant HDAC8 using RHKKAcKAc-AMC fluorogenic peptide as substrate incubated for 2 hrs by microplate reader assay
T7 sequence (Q9BY41 whole entry): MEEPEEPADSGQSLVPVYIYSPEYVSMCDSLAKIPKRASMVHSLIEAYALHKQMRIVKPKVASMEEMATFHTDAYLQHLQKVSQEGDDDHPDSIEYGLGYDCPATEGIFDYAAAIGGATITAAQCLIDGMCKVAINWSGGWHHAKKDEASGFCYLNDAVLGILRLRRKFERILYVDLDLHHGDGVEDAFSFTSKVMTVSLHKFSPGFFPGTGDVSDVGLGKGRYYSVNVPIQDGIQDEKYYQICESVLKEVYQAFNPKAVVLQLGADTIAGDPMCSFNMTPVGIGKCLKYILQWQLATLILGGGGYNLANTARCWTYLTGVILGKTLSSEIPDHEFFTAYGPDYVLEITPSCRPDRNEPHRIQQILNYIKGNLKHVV

[14] = biological target: Histone deacetylase 5 (Homo sapiens, UniProt Q9UQL6); assay: Inhibition of full length human recombinant HDAC5 using Ac-LGK(TFA)-AMC fluorogenic peptide as substrate incubated for 2 hrs by microplate reader assay
[15] = biological target: T8, Histone deacetylase 11 (Homo sapiens, UniProt Q96DB2); assay: Inhibition of full length human recombinant HDAC11 using RHKKAc-AMC fluorogenic peptide as substrate incubated for 2 hrs by microplate reader assay
T8 sequence (Q96DB2 whole entry): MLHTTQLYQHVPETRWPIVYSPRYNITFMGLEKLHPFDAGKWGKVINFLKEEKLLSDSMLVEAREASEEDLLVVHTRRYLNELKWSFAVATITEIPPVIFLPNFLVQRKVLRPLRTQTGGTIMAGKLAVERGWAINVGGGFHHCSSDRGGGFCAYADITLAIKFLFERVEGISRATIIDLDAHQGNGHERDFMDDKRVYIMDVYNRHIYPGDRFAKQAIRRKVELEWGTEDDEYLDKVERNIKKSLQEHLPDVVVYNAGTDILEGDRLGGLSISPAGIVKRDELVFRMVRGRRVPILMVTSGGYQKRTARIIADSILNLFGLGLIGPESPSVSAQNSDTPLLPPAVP

[16] = biological target: T6, Histone deacetylase 3
[17] = biological target: T9, Histone deacetylase 7 (Homo sapiens, UniProt Q8WUI4); assay: Inhibition of full length human recombinant HDAC7 using Ac-LGK(TFA)-AMC fluorogenic peptide as substrate incubated for 2 hrs by microplate reader assay
T9 sequence (Q8WUI4 whole entry): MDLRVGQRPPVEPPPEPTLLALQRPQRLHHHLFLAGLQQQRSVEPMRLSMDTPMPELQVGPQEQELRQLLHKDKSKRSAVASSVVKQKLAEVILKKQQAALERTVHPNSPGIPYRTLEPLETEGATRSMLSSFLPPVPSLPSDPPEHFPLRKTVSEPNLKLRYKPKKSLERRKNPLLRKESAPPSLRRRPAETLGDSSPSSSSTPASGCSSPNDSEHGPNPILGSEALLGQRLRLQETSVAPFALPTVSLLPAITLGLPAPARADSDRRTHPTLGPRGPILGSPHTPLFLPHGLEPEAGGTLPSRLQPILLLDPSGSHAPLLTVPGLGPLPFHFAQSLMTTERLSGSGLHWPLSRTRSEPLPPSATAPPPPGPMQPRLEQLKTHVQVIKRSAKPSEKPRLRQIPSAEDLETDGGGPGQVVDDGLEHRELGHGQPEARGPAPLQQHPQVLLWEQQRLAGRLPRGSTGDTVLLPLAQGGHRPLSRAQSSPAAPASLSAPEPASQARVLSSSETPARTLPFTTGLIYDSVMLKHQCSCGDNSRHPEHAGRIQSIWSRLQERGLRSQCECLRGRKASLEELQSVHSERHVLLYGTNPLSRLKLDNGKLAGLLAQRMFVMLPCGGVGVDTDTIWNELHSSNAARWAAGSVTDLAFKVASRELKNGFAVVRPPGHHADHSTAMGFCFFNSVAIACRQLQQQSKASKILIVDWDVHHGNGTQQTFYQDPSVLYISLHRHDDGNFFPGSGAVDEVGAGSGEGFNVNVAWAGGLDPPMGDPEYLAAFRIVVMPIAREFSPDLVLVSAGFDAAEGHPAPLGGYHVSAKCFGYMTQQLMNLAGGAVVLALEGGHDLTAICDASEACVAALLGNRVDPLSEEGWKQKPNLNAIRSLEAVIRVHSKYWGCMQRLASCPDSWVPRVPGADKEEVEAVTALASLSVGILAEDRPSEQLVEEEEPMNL

[18] = biological target: T6, Histone deacetylase 3; assay: Inhibition of human recombinant HDAC3 incubated for 45 mins by microplate reader assay
[19] = biological target: Histone deacetylase 4 (Homo sapiens, UniProt P56524); assay: Inhibition of human recombinant HDAC4 incubated for 45 mins by microplate reader assay
[20] = biological target: T4, Histone deacetylase 2; assay: Inhibition of full length human recombinant HDAC2 incubated for 30 to 60 mins by HDAC-Glo I/II assay
[21] = biological target: T6, Histone deacetylase 3; assay: Inhibition of full length human recombinant HDAC3 incubated for 30 to 60 mins by HDAC-Glo I/II assay
[22] = biological target: T3, Protein deacetylase HDAC6; assay: Inhibition of full length human recombinant HDAC6 incubated for 30 to 60 mins by HDAC-Glo I/II assay
[23] = biological target: T2, Histone deacetylase 1; assay: Inhibition of full length human recombinant HDAC1 incubated for 30 to 60 mins by HDAC-Glo I/II assay
[24] = biological target: T7, Histone deacetylase 8; assay: Inhibition of full length human recombinant HDAC8 incubated for 30 to 60 mins by HDAC-Glo I/II assay
[25] = biological target: T8, Histone deacetylase 11; assay: Inhibition of full length human recombinant HDAC11 incubated for 30 to 60 mins by HDAC-Glo I/II assay
[26] = biological target: T5, Polyamine deacetylase HDAC10; assay: Inhibition of full length human recombinant HDAC10 incubated for 30 to 60 mins by HDAC-Glo I/II assay

T6 sequence (O15379 whole entry): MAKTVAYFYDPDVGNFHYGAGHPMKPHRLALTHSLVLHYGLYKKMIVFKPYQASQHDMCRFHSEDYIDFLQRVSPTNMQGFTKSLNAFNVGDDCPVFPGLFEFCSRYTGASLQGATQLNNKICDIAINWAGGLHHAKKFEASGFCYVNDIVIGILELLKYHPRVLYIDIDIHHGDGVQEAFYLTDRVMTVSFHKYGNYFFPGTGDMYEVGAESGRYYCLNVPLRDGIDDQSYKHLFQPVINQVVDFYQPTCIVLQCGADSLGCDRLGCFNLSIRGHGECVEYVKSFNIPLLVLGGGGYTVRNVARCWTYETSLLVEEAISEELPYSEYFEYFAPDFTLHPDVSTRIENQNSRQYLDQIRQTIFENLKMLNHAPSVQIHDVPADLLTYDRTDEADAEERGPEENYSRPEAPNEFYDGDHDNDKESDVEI
T2 sequence (Q13547 whole entry): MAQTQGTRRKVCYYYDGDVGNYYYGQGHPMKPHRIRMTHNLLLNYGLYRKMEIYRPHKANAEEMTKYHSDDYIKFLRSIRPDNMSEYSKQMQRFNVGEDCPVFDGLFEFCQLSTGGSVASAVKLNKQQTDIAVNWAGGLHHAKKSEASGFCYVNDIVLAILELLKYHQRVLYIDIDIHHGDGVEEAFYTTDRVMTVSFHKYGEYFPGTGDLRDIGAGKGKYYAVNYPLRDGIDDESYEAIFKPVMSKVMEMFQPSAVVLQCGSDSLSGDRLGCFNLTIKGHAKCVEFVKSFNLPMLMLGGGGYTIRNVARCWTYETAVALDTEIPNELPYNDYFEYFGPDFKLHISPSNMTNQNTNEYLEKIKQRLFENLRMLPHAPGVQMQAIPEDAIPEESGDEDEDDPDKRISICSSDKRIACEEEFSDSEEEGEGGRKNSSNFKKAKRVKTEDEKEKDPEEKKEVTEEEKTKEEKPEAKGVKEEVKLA
T4 sequence (Q92769 whole entry): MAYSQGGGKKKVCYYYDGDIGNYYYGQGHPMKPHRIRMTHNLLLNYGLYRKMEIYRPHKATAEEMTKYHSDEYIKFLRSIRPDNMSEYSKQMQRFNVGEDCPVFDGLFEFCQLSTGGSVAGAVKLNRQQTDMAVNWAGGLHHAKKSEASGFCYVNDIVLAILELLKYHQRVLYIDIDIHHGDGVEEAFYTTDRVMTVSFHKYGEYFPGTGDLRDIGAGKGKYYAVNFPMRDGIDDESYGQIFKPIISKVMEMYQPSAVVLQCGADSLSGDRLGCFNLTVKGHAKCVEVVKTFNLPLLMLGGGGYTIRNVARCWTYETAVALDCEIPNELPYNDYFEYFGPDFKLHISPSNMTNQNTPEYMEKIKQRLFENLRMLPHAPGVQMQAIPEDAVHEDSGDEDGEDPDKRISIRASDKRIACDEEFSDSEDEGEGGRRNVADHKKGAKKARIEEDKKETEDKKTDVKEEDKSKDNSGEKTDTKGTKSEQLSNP
Histone deacetylase 5, sequence (Q9UQL6 whole entry): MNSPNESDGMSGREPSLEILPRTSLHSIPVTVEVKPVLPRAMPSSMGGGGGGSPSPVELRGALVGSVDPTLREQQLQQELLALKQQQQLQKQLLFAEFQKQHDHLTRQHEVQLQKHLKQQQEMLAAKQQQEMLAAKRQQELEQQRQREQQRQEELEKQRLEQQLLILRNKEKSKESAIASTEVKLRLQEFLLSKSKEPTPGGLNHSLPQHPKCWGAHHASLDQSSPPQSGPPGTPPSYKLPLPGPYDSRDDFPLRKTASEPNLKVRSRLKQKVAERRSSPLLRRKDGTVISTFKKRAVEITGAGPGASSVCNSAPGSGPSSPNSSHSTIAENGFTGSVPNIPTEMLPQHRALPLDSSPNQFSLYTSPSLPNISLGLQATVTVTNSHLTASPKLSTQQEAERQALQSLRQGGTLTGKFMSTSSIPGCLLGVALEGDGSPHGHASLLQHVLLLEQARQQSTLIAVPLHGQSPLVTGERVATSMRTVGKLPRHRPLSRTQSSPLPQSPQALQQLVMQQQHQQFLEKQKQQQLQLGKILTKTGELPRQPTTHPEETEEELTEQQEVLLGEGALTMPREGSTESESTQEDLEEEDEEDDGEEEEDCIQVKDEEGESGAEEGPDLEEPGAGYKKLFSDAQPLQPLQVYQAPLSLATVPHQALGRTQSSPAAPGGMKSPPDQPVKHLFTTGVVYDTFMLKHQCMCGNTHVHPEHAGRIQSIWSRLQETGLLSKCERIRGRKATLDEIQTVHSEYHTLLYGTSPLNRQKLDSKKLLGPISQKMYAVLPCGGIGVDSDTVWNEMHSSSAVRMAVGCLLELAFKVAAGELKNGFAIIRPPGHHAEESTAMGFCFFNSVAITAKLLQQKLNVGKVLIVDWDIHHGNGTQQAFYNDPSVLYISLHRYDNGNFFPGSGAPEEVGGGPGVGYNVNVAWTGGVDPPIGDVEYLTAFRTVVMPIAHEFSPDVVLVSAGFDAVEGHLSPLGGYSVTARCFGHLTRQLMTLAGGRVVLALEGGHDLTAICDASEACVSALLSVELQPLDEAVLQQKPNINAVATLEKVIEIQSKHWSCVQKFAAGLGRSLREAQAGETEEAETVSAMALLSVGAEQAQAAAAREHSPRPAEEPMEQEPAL
Histone deacetylase 4, sequence (P56524 whole entry): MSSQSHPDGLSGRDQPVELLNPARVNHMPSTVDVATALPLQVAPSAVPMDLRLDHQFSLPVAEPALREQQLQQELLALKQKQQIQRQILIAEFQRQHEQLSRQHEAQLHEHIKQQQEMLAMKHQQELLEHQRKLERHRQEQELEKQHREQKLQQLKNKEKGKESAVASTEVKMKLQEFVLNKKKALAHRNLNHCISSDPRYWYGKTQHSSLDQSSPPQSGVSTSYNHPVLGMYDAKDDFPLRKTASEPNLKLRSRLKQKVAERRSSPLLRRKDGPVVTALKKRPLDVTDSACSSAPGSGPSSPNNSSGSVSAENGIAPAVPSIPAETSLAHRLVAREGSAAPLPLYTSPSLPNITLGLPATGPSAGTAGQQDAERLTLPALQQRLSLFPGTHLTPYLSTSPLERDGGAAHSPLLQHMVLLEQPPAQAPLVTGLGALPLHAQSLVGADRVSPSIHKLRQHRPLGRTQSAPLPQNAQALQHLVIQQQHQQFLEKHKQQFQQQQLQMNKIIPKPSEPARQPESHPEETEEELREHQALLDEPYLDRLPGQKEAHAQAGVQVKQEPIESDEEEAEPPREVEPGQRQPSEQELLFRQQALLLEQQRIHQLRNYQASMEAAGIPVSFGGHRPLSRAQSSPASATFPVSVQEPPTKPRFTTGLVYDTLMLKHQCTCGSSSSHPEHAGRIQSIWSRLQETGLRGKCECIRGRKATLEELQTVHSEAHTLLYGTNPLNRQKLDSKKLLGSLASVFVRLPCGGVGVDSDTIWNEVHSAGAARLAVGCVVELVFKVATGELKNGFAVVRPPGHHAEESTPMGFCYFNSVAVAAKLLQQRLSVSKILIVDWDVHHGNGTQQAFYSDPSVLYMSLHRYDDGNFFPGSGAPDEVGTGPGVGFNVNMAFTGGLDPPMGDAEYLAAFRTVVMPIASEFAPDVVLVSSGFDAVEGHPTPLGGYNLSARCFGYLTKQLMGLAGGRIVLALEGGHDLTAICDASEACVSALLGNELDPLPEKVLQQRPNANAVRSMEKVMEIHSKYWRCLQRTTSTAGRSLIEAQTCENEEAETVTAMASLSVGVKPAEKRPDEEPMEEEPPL

Compound: Cc1nc(N)nc(COC(=O)c2cccc(-c3cc(C(F)(F)F)on3)c2)n1
- inhibition [1]: 53%
- inhibition [2]: 62%
- inhibition [3]: 32%

Compound: CCCC1=C(Nc2ccc(C(=O)NO)cc2)C2N=CC=CC2=N1 (stereo not drawn)
- IC50 [4]: 2200 nM
- IC50 [5]: 58 nM

Compound: CCN(CC)Cc1ccc(Cn2c(=O)c(OCc3ccc(C(=O)NO)cc3)c(-c3cccnc3)c3ccccc32)cc1
- IC50 [6]: 11.5 nM
- IC50 [7]: 319 nM

Compound: CC(C)(C)OC(=O)Nc1cccc(-c2cc(C(=O)NCCc3cc(C(=O)NO)no3)no2)c1
- IC50 [8]: > 50000 nM
- IC50 [9]: > 50000 nM
- IC50 [10]: > 50000 nM
- IC50 [11]: > 50000 nM

Compound: O=S(=O)(N1CCN(C2COC2)CC1)N(Cc1ccc(-c2nnc(C(F)(F)F)o2)cn1)c1ccc(F)c(Cl)c1
- IC50 [12]: 14 nM

Compound: O=C(NO)c1ccc(CN2CCCc3cc(Cl)ccc32)cc1
- IC50 [13]: 3720 nM
- IC50 [14]: 4070 nM
- IC50 [15]: 5720 nM
- IC50 [16]: 29500 nM
- IC50 [17]: 4550 nM

Compound: CCN(CC)Cc1ccc(Cn2c(=O)c(OCc3ccc(C(=O)NO)cc3)c(-c3ccccc3)c3ccccc32)cc1
- IC50 [6]: 6.9 nM
- IC50 [7]: 322 nM

Compound: O=C(NO)c1ccc(CC(=O)N(CCO)c2ccccc2)cc1
- IC50 [18]: > 10000 nM
- IC50 [19]: 1700 nM

Compound: COc1ccc2c3c(cccc13)C(=O)N(Cc1ccc(C(=O)NO)cc1)C2=O
- IC50 [20]: 162 nM
- IC50 [21]: 64 nM
- IC50 [22]: 0.1 nM
- IC50 [23]: 108 nM
- IC50 [24]: > 30000 nM
- IC50 [25]: > 30000 nM
- IC50 [26]: 375 nM
